Data on 1 compound can be found in patent EP4566594A1, “LIPID NANOPARTICLES COMPRISING LONG-CHAIN CERAMIDE AND COMPOSITION FOR CELL DEATH COMPRISING SAME” (Croda Korea Limited, priority 2022, dated 2024).

Series [1] can be described thus: Solubility of C18-ceramide itself in aqueous solution. The class given is physicochemical. Particulars: without lipid nanoparticles.
The subject of series [2] is MDA-MB-468 cells. As to the kind of experiment: Cell viability, WST-8 reagent, absorbance at 450nm. The class given is cell-based. As to conditions: ceramide alone dispersed in aqueous solution in the same amount as in Examples 1 and 2, column purified. As for the experimental part:
(§1) MDA-MB-231 and MDA-MB-468 cells were cultured at 37°C under 10% fetal bovine serum (FBS) and ATCC modified RPMI medium (Gibco) supplemented with 1% penicillin/streptomycin, 5% CO2.
(§2) For experiments, lipid nanoparticles prepared at each concentration of C18-ceramide were respectively treated (the number of particles: 4.5 x 10^8 ± 2.05 x 10^8) to MDA-MB-231 and MDA-MB-468 cells which were inoculated into a 96-well plate (1.5 x 10^3 cells/well). After 24 hours of incubation, WST-8 reagent (Dojindo) was added to the medium at 37°C for 1 hour. Absorbance was measured at 450nm using a microplate reader (BioTek). Thereafter, cell viability was confirmed by measuring absorbance every 24 hours.
In addition, the cell viability of MDA-MB-468 cells was reduced to 53% when lipid nanoparticles of 5 mM C18-ceramide were treated (FIG. 9b).
In general terms: Tetrazolium assays rely on reduction of a dye to a coloured formazan, in cell work by metabolically active cells.

The subject of series [3] is apoptosis-related proteins (BAX, BAD, BCL2, and cleaved caspase3). As to the kind of experiment: Western blotting of apoptosis-related proteins in MDA-MB-468 cells. As to conditions: ceramide alone dispersed in aqueous solution in the same amount as in Examples 1 and 2, column purified. In kind it is cell-based. As for the experimental part: MDA-MB-468 cells were cultured in ATCC modified RPMI medium (Gibco) supplemented with 10% fetal bovine serum (FBS) and 1% penicillin/streptomycin at 37°C under 5% CO2.
For experiments, MDA-MB-468 cells were seeded onto 60 mm^2 cell culture plates (1.3 x 10^6 cells/plate). After 24 hours, LNP prepared at different concentrations of C18-ceramide was calculated and added to 2.5 mL opti-MEM medium per well such that 2.48 x 10^11±2.75 x 10^10 particles were included in the medium. The medium containing LNP was treated and incubated at 37°C for 24 hours.
Thereafter, the cells were collected, and western blotting was performed. For this purpose, MDA-MB-468 cells treated with LNP were lysed in RIPA buffer containing a protease inhibitor and a phosphatase inhibitor (Sigma). Total cell lysates were quantified using the BCA protein assay kit (Thermo Scientific). Next, the cell lysate (50 µg) was loaded on a 4-15% gradient SDS-PAGE gel (Biorad) under denaturing conditions and transferred to a PVDF membrane (iBlot2 Dry Blotting System, Thermo Scientific). […]
The secondary antibody conjugated with HRP was reacted at room temperature for 2 hours, and then the membrane was treated with Western ECL, and the luminescence image was analyzed using LAS500 (GE Healthcare), and the results are shown in FIG. 10.
In general terms: A western blot detects proteins with antibodies after separation by electrophoresis.

Series [4] relates to MDA-MB-231 cells. Nature of the series: Cell viability, WST-8 reagent, absorbance at 450nm. The class given is cell-based. As to conditions: ceramide alone dispersed in aqueous solution in the same amount as in Examples 1 and 2, column purified. As for the experimental part:
as §1, §2

Each structure is given as a SMILES string.

Consider `CCCCCCCC/C=C\CCCCCCCC(=O)N[C@@H](CO)[C@H](O)[C@H](O)CCCCCCCCCCCCCC` (stereo in doubt) [C18-ceramide, N-Oleoyl-phytosphingosine], for which the “solubility in an aqueous solution” value in series [1] is listed as “insoluble”. Also, the cell survival rate result in series [2] and in series [4] was “no change” each time. Also, the antitumor-related protein expression result in series [3] was “no change”.
